One molecule from the kinase profiling compilation of Christmann-Franck et al. (2016) can be followed below.

SMILES strings stand for the structures. A value given as a limit tells only on which side of the number the result lay.

Some targets named below: FES (human) (UniProt P07332); FGFR3 (human) (UniProt P22607); FLT4 (human) (UniProt P35916); MERTK (human) (UniProt Q12866).
Holding throughout (assay): radiometric filter-binding kinase assay, Kinaseprofiler

Sequence of FLT4 (human) (P35916 whole entry, looked up): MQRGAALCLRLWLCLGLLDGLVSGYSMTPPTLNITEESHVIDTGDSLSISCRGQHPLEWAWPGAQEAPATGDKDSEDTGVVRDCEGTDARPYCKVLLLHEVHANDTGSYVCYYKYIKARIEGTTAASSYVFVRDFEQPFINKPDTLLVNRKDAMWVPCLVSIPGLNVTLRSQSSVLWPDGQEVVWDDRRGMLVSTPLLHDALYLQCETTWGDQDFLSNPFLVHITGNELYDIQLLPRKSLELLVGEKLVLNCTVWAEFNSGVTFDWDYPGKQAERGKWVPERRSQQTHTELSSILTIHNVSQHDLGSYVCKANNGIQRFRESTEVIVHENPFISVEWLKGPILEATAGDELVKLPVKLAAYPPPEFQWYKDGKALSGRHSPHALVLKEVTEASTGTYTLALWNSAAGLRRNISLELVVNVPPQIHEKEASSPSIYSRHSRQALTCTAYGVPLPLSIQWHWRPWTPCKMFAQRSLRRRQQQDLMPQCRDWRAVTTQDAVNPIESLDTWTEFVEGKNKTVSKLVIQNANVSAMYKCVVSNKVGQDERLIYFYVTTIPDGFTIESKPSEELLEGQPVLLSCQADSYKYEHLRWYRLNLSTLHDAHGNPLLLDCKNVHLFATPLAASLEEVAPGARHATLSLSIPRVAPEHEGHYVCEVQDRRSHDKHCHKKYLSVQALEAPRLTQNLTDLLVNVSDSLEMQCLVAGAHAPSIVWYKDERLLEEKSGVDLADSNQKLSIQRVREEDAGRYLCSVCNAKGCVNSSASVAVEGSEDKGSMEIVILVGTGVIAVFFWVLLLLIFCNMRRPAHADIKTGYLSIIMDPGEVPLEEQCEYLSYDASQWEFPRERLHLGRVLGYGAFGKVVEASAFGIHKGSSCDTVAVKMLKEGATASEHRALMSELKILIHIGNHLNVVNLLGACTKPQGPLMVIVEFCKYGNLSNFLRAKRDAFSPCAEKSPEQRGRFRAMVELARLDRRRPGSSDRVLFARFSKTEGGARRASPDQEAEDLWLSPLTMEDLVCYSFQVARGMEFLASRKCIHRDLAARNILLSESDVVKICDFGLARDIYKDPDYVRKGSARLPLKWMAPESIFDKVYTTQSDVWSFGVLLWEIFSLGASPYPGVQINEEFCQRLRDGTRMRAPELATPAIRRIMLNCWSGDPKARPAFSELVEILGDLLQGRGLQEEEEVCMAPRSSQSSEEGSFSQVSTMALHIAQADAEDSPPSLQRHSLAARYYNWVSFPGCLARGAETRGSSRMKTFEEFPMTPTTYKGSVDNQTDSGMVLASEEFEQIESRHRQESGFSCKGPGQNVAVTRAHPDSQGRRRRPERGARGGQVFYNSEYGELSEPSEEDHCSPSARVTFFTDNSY
Sequence of MERTK (human) (Q12866 whole entry, looked up): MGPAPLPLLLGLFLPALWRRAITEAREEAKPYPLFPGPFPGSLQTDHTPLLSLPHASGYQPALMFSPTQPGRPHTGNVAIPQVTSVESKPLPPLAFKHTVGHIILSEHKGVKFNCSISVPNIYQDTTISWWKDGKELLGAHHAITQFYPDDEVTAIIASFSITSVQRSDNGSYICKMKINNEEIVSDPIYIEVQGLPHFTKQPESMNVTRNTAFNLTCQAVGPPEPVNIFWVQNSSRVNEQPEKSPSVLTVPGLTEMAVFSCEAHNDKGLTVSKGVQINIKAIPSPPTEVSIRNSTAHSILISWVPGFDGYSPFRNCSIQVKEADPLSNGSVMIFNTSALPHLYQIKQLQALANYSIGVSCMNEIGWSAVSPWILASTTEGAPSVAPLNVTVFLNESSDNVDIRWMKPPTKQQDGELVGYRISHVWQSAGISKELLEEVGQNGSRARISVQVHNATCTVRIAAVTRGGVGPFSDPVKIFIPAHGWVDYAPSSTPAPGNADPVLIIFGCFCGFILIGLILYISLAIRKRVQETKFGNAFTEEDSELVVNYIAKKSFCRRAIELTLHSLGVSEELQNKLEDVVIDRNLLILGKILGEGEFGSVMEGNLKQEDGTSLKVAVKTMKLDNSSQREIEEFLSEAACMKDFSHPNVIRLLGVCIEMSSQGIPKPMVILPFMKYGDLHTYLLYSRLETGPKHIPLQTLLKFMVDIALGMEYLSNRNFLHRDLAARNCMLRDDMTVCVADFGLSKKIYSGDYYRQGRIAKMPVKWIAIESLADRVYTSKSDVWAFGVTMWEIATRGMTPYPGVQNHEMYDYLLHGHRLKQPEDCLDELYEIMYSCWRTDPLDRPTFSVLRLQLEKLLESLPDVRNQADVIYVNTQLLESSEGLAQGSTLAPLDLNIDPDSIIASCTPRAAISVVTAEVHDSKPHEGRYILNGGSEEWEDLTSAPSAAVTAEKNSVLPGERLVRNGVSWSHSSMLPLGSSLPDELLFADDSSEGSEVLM
Sequence of FGFR3 (human) (P22607 whole entry, looked up): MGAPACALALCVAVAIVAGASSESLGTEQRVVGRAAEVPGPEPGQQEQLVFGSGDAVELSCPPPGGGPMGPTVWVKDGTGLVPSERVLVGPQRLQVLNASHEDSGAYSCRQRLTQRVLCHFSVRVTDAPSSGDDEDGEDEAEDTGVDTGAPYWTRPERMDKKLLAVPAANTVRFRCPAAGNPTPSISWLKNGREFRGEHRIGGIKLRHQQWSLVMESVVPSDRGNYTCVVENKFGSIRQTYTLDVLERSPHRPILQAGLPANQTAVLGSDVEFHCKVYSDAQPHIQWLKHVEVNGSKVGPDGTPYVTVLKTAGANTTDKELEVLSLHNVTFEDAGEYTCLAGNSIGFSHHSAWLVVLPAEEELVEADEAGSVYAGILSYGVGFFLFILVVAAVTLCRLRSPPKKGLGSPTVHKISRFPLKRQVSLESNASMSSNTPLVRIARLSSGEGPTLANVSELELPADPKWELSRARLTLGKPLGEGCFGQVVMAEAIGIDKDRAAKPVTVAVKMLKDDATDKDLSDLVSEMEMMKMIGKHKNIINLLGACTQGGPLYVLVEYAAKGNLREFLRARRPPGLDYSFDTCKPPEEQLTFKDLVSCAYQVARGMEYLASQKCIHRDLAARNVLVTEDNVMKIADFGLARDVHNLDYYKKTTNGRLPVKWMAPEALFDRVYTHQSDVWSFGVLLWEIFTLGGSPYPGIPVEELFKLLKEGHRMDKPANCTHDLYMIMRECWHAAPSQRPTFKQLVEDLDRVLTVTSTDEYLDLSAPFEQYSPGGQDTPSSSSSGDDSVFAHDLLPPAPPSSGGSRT
Sequence of FES (human) (P07332 whole entry, looked up): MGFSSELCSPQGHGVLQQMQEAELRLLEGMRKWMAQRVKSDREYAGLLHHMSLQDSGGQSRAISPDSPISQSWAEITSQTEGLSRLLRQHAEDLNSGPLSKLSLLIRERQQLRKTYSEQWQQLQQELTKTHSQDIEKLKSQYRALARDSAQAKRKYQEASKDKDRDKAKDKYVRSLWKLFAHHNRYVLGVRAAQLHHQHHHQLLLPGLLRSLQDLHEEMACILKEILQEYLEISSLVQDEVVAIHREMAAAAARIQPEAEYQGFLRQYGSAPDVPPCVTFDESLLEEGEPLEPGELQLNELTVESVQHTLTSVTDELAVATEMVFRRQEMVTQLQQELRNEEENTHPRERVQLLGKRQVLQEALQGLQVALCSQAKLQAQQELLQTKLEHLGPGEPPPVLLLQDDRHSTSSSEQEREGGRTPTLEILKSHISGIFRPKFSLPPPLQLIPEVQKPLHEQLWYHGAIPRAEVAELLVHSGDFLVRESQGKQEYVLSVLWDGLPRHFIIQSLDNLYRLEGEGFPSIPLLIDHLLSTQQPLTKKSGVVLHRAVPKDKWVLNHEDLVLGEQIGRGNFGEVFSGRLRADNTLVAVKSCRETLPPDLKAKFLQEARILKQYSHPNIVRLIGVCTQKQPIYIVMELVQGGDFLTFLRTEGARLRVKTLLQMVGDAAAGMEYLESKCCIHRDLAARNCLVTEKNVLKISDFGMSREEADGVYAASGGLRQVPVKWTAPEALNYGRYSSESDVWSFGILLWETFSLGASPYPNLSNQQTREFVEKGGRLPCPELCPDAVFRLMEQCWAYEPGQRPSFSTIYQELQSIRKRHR

As for `Cn1cc(-c2cnc3ccc4ccc(CS(=O)(=O)NCc5ccccn5)cc4c(=O)c3c2)cn1`, the IC50 is above 10000 nM at FES (human), 1000 nM at FGFR3 (human), 920 nM on FLT4 (human) and 880 nM at MERTK (human).

The term IC50 denotes the concentration needed to halve the response being measured. Read a high IC50 as a need for much substance.
